Assay results published in patent US20110082130A1 (LIGAND PHARMACEUTICALS, INC., priority 2006, published 2011).

molecular target: T1, chimeric human H3 receptor (Homo sapiens, UniProt Q9Y5N1); assay: Chimeric human H3 receptor GTP binding assay (agonist-stimulated GTP-gamma35S binding, Example 7); assay type: biochemical; conditions: assay of Example 7; "*" in Ki of Table II
T1 construct: made in house; host or cells: Sf9 insect cells (baculovirus); P2 membrane preparation
How it was run: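 Sf9 membranes co-expressing chimeric human H3 receptor and heterotrimeric G-protein, 35 μg/tube, in pH 7.4 Tris buffer with 10 μM GDP. Test compounds (10^−10–10^−6 M) competed against 1 μM histamine, […] GTP-gamma35S, 60 min at room temperature. Filter-bound radioactivity counted; IC50 converted to Ki by Cheng-Prusoff. Agonism/inverse agonism tested without histamine (EC50).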

T1 sequence (Q9Y5N1 with tags, fused parts or gaps): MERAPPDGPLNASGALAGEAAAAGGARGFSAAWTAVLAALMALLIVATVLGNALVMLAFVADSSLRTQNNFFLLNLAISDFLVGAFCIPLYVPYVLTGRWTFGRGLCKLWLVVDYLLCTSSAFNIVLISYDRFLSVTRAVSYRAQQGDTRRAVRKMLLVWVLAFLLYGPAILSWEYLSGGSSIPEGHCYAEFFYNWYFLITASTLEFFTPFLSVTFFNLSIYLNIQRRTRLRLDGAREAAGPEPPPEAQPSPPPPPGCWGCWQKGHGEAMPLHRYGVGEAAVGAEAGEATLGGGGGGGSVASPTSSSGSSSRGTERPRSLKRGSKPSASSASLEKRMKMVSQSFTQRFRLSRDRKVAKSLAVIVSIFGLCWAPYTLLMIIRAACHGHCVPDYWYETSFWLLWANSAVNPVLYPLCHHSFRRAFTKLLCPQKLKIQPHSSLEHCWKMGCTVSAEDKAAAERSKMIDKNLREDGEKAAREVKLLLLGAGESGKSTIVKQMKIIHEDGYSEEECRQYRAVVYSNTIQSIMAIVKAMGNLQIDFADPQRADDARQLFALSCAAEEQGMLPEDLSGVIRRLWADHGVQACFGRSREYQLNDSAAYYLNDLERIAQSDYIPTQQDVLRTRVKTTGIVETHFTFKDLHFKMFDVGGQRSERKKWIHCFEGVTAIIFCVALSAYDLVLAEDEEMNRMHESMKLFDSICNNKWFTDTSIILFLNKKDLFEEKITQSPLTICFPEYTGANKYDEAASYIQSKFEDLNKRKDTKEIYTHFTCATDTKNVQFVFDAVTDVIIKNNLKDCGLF

Ki, < 1000 nM:
COc1ccc(-c2nc3c(s2)CN(CC(=O)N2CCN(C4CCC4)CC2)CC3)cc1OC [Compound 329, 5-[2-(4-cyclobutylpiperazin-1-yl)-2-oxoethyl]-2-(3,4-dimethoxyphenyl)-4,5,6,7-tetrahydro[1,3]thiazolo [5,4-c]pyridine]
CCOc1ccc(-c2nc3c(s2)CN(CC(=O)N2CCN(C4CCC4)CC2)CC3)cc1 [Compound 330, 5-[2-(4-cyclobutylpiperazin-1-yl)-2-oxoethyl]-2-(4-ethoxyphenyl)-4,5,6,7-tetrahydro[1,3]thiazolo [5,4-c]pyridine]
CN(C)c1ccc(-c2nc3c(s2)CN(CC(=O)N2CCN(C4CCC4)CC2)CC3)cc1 [Compound 331, 4-{5-[2-(4-cyclobutylpiperazin-1-yl)-2-oxoethyl]-4,5,6,7-tetrahydro[1,3]thiazolo [5,4-c]pyridin-2-yl}-N,N-dimethylaniline]
O=C(CN1CCc2nc(-c3ccc4c(c3)OCCO4)sc2C1)N1CCN(C2CCC2)CC1 [Compound 332]
COc1ccc(-c2nc3c(s2)CN(CC(=O)N2CCN(C4CCC4)CC2)CC3)cc1C [Compound 333, 5-[2-(4-cyclobutylpiperazin-1-yl)-2-oxoethyl]-2-(4-methoxy-3-methylphenyl)-4,5,6,7-tetrahydro[1,3]thiazolo [5,4-c]pyridine]
CCCOc1ccc(-c2nc3c(s2)CN(CC(=O)N2CCN(C4CCC4)CC2)CC3)cc1 [Compound 334, 5-[2-(4-cyclobutylpiperazin-1-yl)-2-oxoethyl]-2-(4-propoxyphenyl)-4,5,6,7-tetrahydro[1,3]thiazolo [5,4-c]pyridine]
COc1ccc(-c2nc3c(s2)CN(CC(=O)N2CCN(C4CCC4)CC2)CC3)c(C)c1 [Compound 335, 5-[2-(4-cyclobutylpiperazin-1-yl)-2-oxoethyl]-2-(4-methoxy-2-methylphenyl)-4,5,6,7-tetrahydro[1,3]thiazolo [5,4-c]pyridine]
COc1ccccc1-c1nc2c(s1)CN(CC(=O)N1CCN(C3CCC3)CC1)CC2 [Compound 336, 5-[2-(4-cyclobutylpiperazin-1-yl)-2-oxoethyl]-2-(2-methoxyphenyl)-4,5,6,7-tetrahydro[1,3]thiazolo [5,4-c]pyridine]
COc1ccc(Cl)cc1-c1nc2c(s1)CN(CC(=O)N1CCN(C3CCC3)CC1)CC2 [Compound 338, 2-(5-chloro-2-methoxyphenyl)-5-[2-(4-cyclobutylpiperazin-1-yl)-2-oxoethyl]-4,5,6,7-tetrahydro[1,3]thiazolo [5,4-c]pyridine]
COc1ccc(OC)c(-c2nc3c(s2)CN(CC(=O)N2CCN(C4CCC4)CC2)CC3)c1 [Compound 339, 5-[2-(4-cyclobutylpiperazin-1-yl)-2-oxoethyl]-2-(2,5-dimethoxyphenyl)-4,5,6,7-tetrahydro[1,3]thiazolo [5,4-c]pyridine]
COc1ccc(-c2nc3c(s2)CN(CC(=O)N2CCN(C4CCC4)CC2)CC3)c(OC)c1 [Compound 340, 5-[2-(4-cyclobutylpiperazin-1-yl)-2-oxoethyl]-2-(2,4-dimethoxyphenyl)-4,5,6,7-tetrahydro[1,3]thiazolo [5,4-c]pyridine]
CCOc1ccccc1-c1nc2c(s1)CN(CC(=O)N1CCN(C3CCC3)CC1)CC2 [Compound 341, 5-[2-(4-cyclobutylpiperazin-1-yl)-2-oxoethyl]-2-(2-ethoxyphenyl)-4,5,6,7-tetrahydro[1,3]thiazolo [5,4-c]pyridine]
O=C(CN1CCc2nc(-c3cccc4c3oc3ccccc34)sc2C1)N1CCN(C2CCC2)CC1 [Compound 342, 5-[2-(4-cyclobutylpiperazin-1-yl)-2-oxoethyl]-2-dibenzo[b,d]furan-4-yl-4,5,6,7-tetrahydro[1,3]thiazolo [5,4-c]pyridine]
COc1ccc(C)cc1-c1nc2c(s1)CN(CC(=O)N1CCN(C3CCC3)CC1)CC2 [Compound 344, 5-[2-(4-cyclobutylpiperazin-1-yl)-2-oxoethyl]-2-(2-methoxy-5-methylphenyl)-4,5,6,7-tetrahydro[1,3]thiazolo [5,4-c]pyridine]
O=C(CN1CCc2nc(-c3ccc(F)c(Cl)c3)sc2C1)N1CCN(C2CCC2)CC1 [Compound 346, 2-(3-chloro-4-fluorophenyl)-5-[2-(4-cyclobutylpiperazin-1-yl)-2-oxoethyl]-4,5,6,7-tetrahydro[1,3]thiazolo [5,4-c]pyridine]
O=C(CN1CCc2nc(-c3cc(F)ccc3F)sc2C1)N1CCN(C2CCC2)CC1 [Compound 347, 5-[2-(4-cyclobutylpiperazin-1-yl)-2-oxoethyl]-2-(2,5-difluorophenyl)-4,5,6,7-tetrahydro[1,3]thiazolo [5,4-c]pyridine]
O=C(CN1CCc2nc(-c3ccc(F)cc3F)sc2C1)N1CCN(C2CCC2)CC1 [Compound 348, 5-[2-(4-cyclobutylpiperazin-1-yl)-2-oxoethyl]-2-(2,4-difluorophenyl)-4,5,6,7-tetrahydro[1,3]thiazolo [5,4-c]pyridine]
O=C(CN1CCc2nc(-c3ccc(F)c(F)c3)sc2C1)N1CCN(C2CCC2)CC1 [Compound 349, 5-[2-(4-cyclobutylpiperazin-1-yl)-2-oxoethyl]-2-(3,4-difluorophenyl)-4,5,6,7-tetrahydro[1,3]thiazolo [5,4-c]pyridine]
O=C(CN1CCc2nc(-c3cc(Cl)cc(Cl)c3)sc2C1)N1CCN(C2CCC2)CC1 [Compound 350, 5-[2-(4-cyclobutylpiperazin-1-yl)-2-oxoethyl]-2-(3,5-dichlorophenyl)-4,5,6,7-tetrahydro[1,3]thiazolo [5,4-c]pyridine]
O=C(CN1CCc2nc(-c3ccc(Cl)cc3F)sc2C1)N1CCN(C2CCC2)CC1 [Compound 351, 2-(4-chloro-2-fluorophenyl)-5-[2-(4-cyclobutylpiperazin-1-yl)-2-oxoethyl]-4,5,6,7-tetrahydro[1,3]thiazolo [5,4-c]pyridine]
O=C(CN1CCc2nc(-c3ccc(Cl)c(F)c3)sc2C1)N1CCN(C2CCC2)CC1 [Compound 352, 2-(4-chloro-3-fluorophenyl)-5-[2-(4-cyclobutylpiperazin-1-yl)-2-oxoethyl]-4,5,6,7-tetrahydro[1,3]thiazolo [5,4-c]pyridine]
O=C(CN1CCc2nc(-c3c(F)cccc3F)sc2C1)N1CCN(C2CCC2)CC1 [Compound 353, 5-[2-(4-cyclobutylpiperazin-1-yl)-2-oxoethyl]-2-(2,6-difluorophenyl)-4,5,6,7-tetrahydro[1,3]thiazolo [5,4-c]pyridine]
O=C(CN1CCc2nc(-c3ccc(Cl)c(Cl)c3)sc2C1)N1CCN(C2CCC2)CC1 [Compound 354, 5-[2-(4-cyclobutylpiperazin-1-yl)-2-oxoethyl]-2-(3,4-dichlorophenyl)-4,5,6,7-tetrahydro[1,3]thiazolo [5,4-c]pyridine]
O=C(CN1CCc2nc(-c3cc(F)cc(F)c3)sc2C1)N1CCN(C2CCC2)CC1 [Compound 355, 5-[2-(4-cyclobutylpiperazin-1-yl)-2-oxoethyl]-2-(3,5-difluorophenyl)-4,5,6,7-tetrahydro[1,3]thiazolo [5,4-c]pyridine]
O=C(CN1CCc2nc(-c3cccc(F)c3F)sc2C1)N1CCN(C2CCC2)CC1 [Compound 356, 5-[2-(4-cyclobutylpiperazin-1-yl)-2-oxoethyl]-2-(2,3-difluorophenyl)-4,5,6,7-tetrahydro[1,3]thiazolo [5,4-c]pyridine]
O=C(CN1CCc2nc(-c3ccccc3Cl)sc2C1)N1CCN(C2CCC2)CC1 [Compound 357, 2-(2-chlorophenyl)-5-[2-(4-cyclobutylpiperazin-1-yl)-2-oxoethyl]-4,5,6,7-tetrahydro[1,3]thiazolo [5,4-c]pyridine]
O=C(CN1CCc2nc(-c3cccc(Cl)c3Cl)sc2C1)N1CCN(C2CCC2)CC1 [Compound 358, 5-[2-(4-cyclobutylpiperazin-1-yl)-2-oxoethyl]-2-(2,3-dichlorophenyl)-4,5,6,7-tetrahydro[1,3]thiazolo [5,4-c]pyridine]
O=C(CN1CCc2nc(-c3ccc(Cl)cc3Cl)sc2C1)N1CCN(C2CCC2)CC1 [Compound 359, 5-[2-(4-cyclobutylpiperazin-1-yl)-2-oxoethyl]-2-(2,4-dichlorophenyl)-4,5,6,7-tetrahydro[1,3]thiazolo [5,4-c]pyridine]
O=C(CN1CCc2nc(-c3ccccc3C(F)(F)F)sc2C1)N1CCN(C2CCC2)CC1 [Compound 360, 5-[2-(4-cyclobutylpiperazin-1-yl)-2-oxoethyl]-2-[2-(trifluoromethyl)phenyl]-4,5,6,7-tetrahydro[1,3]thiazolo [5,4-c]pyridine]
COc1cccc(OC)c1-c1nc2c(s1)CN(CC(=O)N1CCN(C3CCC3)CC1)CC2 [Compound 361, 5-[2-(4-cyclobutylpiperazin-1-yl)-2-oxoethyl]-2-(2,6-dimethoxyphenyl)-4,5,6,7-tetrahydro[1,3]thiazolo [5,4-c]pyridine]
CC(C)c1ccccc1-c1nc2c(s1)CN(CC(=O)N1CCN(C3CCC3)CC1)CC2 [Compound 362, 5-[2-(4-cyclobutylpiperazin-1-yl)-2-oxoethyl]-2-(2-isopropylphenyl)-4,5,6,7-tetrahydro[1,3]thiazolo [5,4-c]pyridine]
Cc1cccc(C)c1-c1nc2c(s1)CN(CC(=O)N1CCN(C3CCC3)CC1)CC2 [Compound 363, 5-[2-(4-cyclobutylpiperazin-1-yl)-2-oxoethyl]-2-(2,6-dimethylphenyl)-4,5,6,7-tetrahydro[1,3]thiazolo [5,4-c]pyridine]
O=C(CN1CCc2nc(-c3cc(Cl)ccc3Cl)sc2C1)N1CCN(C2CCC2)CC1 [Compound 364, 5-[2-(4-cyclobutylpiperazin-1-yl)-2-oxoethyl]-2-(2,5-dichlorophenyl)-4,5,6,7-tetrahydro[1,3]thiazolo [5,4-c]pyridine]
